Measured values as given in US4386093A (The United States of America as represented by the …, priority 1981, dated 1983).
Like-named read-outs stand apart in the source and are kept apart here.

What was measured:
poliovirus = type: cell-based
[1] = system: neutrophilis or macrophage cell lines
[2] = system: calf intestinal deaminase; test: Deamination by calf intestinal deaminase; type: biochemical
in vitro = details: vaccinia assay host cells
[3] = 1 μM; vaccinia assay
adenosine kinase = test: Phosphorylation by adenosine kinase; type: biochemical
[4] = Cell number in herpes I plaque assay; type: cell-based; details: mouse L cells
HL-23 C type virus [5] = test: HL-23 virus production in NRKB/HL23 cells; type: cell-based; details: HL2/3, 72 h
Experimental: on day 3; virus production by HL23 was measured with NRKB/HL23 cells on
day 3; oncogenic transformation by HL23 was assayed by infecting normal

[6] = system: S-adenosylhomocysteine hydrolase
HL-23 C type virus [7] = test: HL-23 foci formation (oncogenic transformation) in normal rat kidney cells; type: cell-based; details: NRK 153 Cl 7 cells, day 5
vaccinia virus = test: microbe, parasite or virus in culture; type: cell-based
[8] = Cell number in HL-23 virus production assay; type: cell-based; details: rat, nrkb/hl23 cells, read-out: % Control Cell Number
herpes simplex type I = test: Herpes I plaque formation in mouse L cells; type: cell-based; details: 72 h, day 3
[9] = Cell number in HL-23 foci formation assay; type: cell-based; details: rat, nrk 153 cl 7 cells, read-out: % Control Cell Number
[10] = listed as (±)3-Deazaaristeromycin
[11] = read-out: Ki, S-adenosylhomocysteine hydrolase

Nc1nccc2c1ncn2[C@@H]1O[C@H](CO)[C@@H](O)[C@H]1O [3-deazaadenosine, reference compound]
Inhibition of replication of poliovirus (poliovirus): fail to inhibit

Nc1nccc2c1ncn2[C@@H]1C[C@H](CO)[C@@H](O)[C@H]1O (relative stereo) [(±)3-deazaaristeromycin, (±)-4-amino-1-[(1α, 2β, 3β, 4α)-2,3-dihydroxy-4-(hydroxymethyl)-cyclopentyl]imidazo[4,5-c]pyridine]
Inhibition of chemotaxis [1]: does not inhibit
Deamination ([2]; listed as 3-Deaza-Ari): not deaminated
Deamination [2, 10]: not subject to deamination or phosphorylation
activity at 0.5 µM (in vitro): 120%
activity at 1 µM (in vitro): 144%
activity at 2 µM (in vitro): 111%
activity at 4 µM (in vitro): 111%
cytotoxicity [3]: without any cytotoxicity
Phosphorylation (adenosine kinase; listed as 3-Deaza-Ari): not phosphorylated
Phosphorylation (adenosine kinase; [10]): not subject to deamination or phosphorylation
activity at 72 h, 10 µM ([4]; 10 uM, read-out: % Control Cell Number): 100%
activity at 72 h, 20 µM ([4]; 20 uM, read-out: % Control Cell Number): 95%
activity at 72 h, 30 µM ([4]; 30 uM, read-out: % Control Cell Number): 95%
activity at 72 h, 40 µM ([4]; 40 uM, read-out: % Control Cell Number): 91%
activity at 72 h, 50 µM ([4]; 50 uM, read-out: % Control Cell Number): 95%
activity at 72 h, 60 µM ([4]; 60 uM, read-out: % Control Cell Number): 91%
activity at 72 h, 70 µM ([4]; 70 uM, read-out: % Control Cell Number): 82%
cytotoxicity ([4]; 20-30 μM, read-out: Reduction in the cell number (cytotoxicity)): ≤ 5%
inhibition at 0.25 µM (HL-23 C type virus [5]; 0.25 uM, day 3): 68%
inhibition at 1 µM (HL-23 C type virus [5]; 1.00 uM, day 3): 86%
inhibition at 0.5 µM (HL-23 C type virus [5]; read-out: % Inhibition, HL-23 virus production, 0.50 uM, day 3): > 85%
Irreversible inhibition of the enzyme [6]: negligible or very little irreversible inhibition
Ki ([6]; read-out: Ki, AdoHcy hydrolase): 3000 nM
Ki [6, 11]: 3000 nM
% Inhibition, HL-23 foci formation (HL-23 C type virus [7]; 2.00 uM, 2 µM): 92%
inhibition at 0.25 µM (HL-23 C type virus [7]; HL2/3, 120 h, 0.25 uM): 44%
inhibition at 0.5 µM (HL-23 C type virus [7]; HL2/3, 120 h, 0.50 uM): 44%
inhibition at 1 µM (HL-23 C type virus [7]; HL2/3, 120 h, 1.00 uM): 76%
inhibition at 2 µM (HL-23 C type virus [7]; HL2/3, 120 h, 2.00 uM): ~96%
inhibition at 4 µM (HL-23 C type virus [7]; HL2/3, 120 h, 4.00 uM): 99%
% Inhibition, Vaccinia plaque formation (vaccinia virus; 1.0 uM): 99.2%
inhibition at 0.5 µM (vaccinia virus; Orthopoxvirus vaccinia, read-out: % Inhibition, Vaccinia plaque formation, 0.5 uM): 84%
inhibition at 1 µM (vaccinia virus; Orthopoxvirus vaccinia, read-out: % Inhibition, Vaccinia plaque formation, 1.0 uM): > 99%
inhibition at 2 µM (vaccinia virus; Orthopoxvirus vaccinia, read-out: % Inhibition, Vaccinia plaque formation, 2.0 uM): 99.6%
inhibition at 4 µM (vaccinia virus; Orthopoxvirus vaccinia, read-out: % Inhibition, Vaccinia plaque formation, 4.0 uM): 99.8%
activity at 72 h, 0.25 µM ([8]; 0.25 uM): 100%
activity at 72 h, 0.5 µM ([8]; 0.50 uM): 88%
activity at 72 h, 1 µM ([8]; 1.00 uM): 75%
inhibition at 10 µM (herpes simplex type I; 10 uM): 60%
inhibition at 20 µM (herpes simplex type I; 20 uM): 97%
inhibition at 30 µM (herpes simplex type I; 30 uM): > 99%
inhibition at 40 µM (herpes simplex type I; 40 uM): 99.3%
inhibition at 50 µM (herpes simplex type I; 50 uM): 99.3%
inhibition at 60 µM (herpes simplex type I; 60 uM): 100%
inhibition at 70 µM (herpes simplex type I; 70 uM): 100%
Inhibition of replication of poliovirus (poliovirus): fail to inhibit
activity at 120 h, 0.25 µM ([9]; 0.25 uM): 100%
activity at 120 h, 0.5 µM ([9]; 0.50 uM): 96%
activity at 120 h, 1 µM ([9]; 1.00 uM): 81%
activity at 120 h, 2 µM ([9]; 2.00 uM): 71%
activity at 120 h, 4 µM ([9]; 4.00 uM): 53%

Nc1ncnc2c1ncn2[C@@H]1C[C@H](CO)[C@@H](O)[C@H]1O (relative stereo) [(±)aristeromycin, reference compound]
Ki [6, 11]: 1 nM
